Consider one substance from US6420338B1, “Inhibition of the Src kinase family pathway as a method of treating HBV infection and hepatocellular carcinoma” (New York University Medical Center, priority 1997, dated 2002).

The test system of this assay is c-Src. Nature of the assay: c-Src immunoprecipitation in vitro kinase assay (auto-phosphorylation and enolase trans-phosphorylation). In kind it is cell-based. The conditions noted are these: serum-starved NIH 3T3 cells; PDGF 100 ng/ml for 5 min. How it is done: FIGS. 1A-1C Serum-starved NIH 3T3 cells were infected with AdCMV-X or -Xo viruses, c-Src or c-Fyn was immunoprecipitated, the pellet washed and assayed by incubation with the substrate enolase and [γ-^32P] ATP. Products were resolved by SDS-10%-PAGE then visualized and quantitiated by PhosphorImage analysis. c-Src (FIG. 1A) or c-Fyn (FIG. 1B) were immunoprecipitated 8 h p.i. from NIH 3T3 cell lysates expressing HBx or HBxo. Where indicated, cells were incubated with PDGF (100 ng/ml) for 5 min. (FIG. 1C) Transfected HBx activates c-Src in the cytoplasm. Chang cells were transfected with 10 μg pCMV-Xo (HBxo), PCMV-X (wt HBx) or pCMV-XNLS (nuclear HBx) expression plasmids, serum-starved for 24 h, c-Src immunoprecipitated and subjected to an in vitro trans-phosphorylation assay, then analyzed as above. […]
Src kinase assays were carried out essentially as described (Kypta et al., 1990, Cell 62:481-492). […] Src and Fyn kinase activity were measured by immunoprecipitating either Src (1 μg anti-Src antibodies) or Fyn (1 μg/ml anti-Fyn antibodies) from equal amounts of cell lysate. […] For the reactions containing the Src peptide substrate, TCA was added to a final concentration of 20%, an aliquot was spotted onto phosphocellulose paper (UBI), the filters were washed 3×5 minutes in 0.75% phosphoric acid and once in acetone, dried and analyzed by scintillation counting. […]

As to PDGF, the “activation of c-Src (auto- and trans-phosphorylation)” value is given as 3-4 fold.
